Results on 17 compounds are retold here after PMC6515286 (Molecules, 2019).

The target in one test is 5-HT2A receptor (Homo sapiens, UniProt P28223). In words: in vitro binding to 5-HT2A receptor (screening protocol). Conditions: read-out: Ki ± SD 5-HT2A. As to the method: (§1) The ligands obtained in the synthesis (10a–r) were tested in vitro for binding to D2, 5-HT1A, 5-HT2A, 5-HT6, and 5-HT7 receptors on the basis of the screening protocol described previously (Table 6).

The next test concerns the target D2 receptor (Homo sapiens, UniProt P14416). Kind of test: in vitro binding to D2 receptor (screening protocol). The following applies: read-out: Ki ± SD D2. Here is the method: as §1
A further test has as its target 5-HT6 receptor (Homo sapiens, UniProt P50406). In words: in vitro binding to 5-HT6 receptor (screening protocol). The following applies: read-out: Ki ± SD 5-HT6. As to the method:
as §1

The target in a further test is 5-HT7 receptor (Homo sapiens, UniProt P34969). Kind of test: in vitro binding to 5-HT7 receptor (screening protocol). Conditions: read-out: Ki ± SD 5-HT7. Here is the method:
as §1

Another test deals with T1, 5-HT1A receptor (Homo sapiens, UniProt P08908).
T1 sequence (P08908 1-422): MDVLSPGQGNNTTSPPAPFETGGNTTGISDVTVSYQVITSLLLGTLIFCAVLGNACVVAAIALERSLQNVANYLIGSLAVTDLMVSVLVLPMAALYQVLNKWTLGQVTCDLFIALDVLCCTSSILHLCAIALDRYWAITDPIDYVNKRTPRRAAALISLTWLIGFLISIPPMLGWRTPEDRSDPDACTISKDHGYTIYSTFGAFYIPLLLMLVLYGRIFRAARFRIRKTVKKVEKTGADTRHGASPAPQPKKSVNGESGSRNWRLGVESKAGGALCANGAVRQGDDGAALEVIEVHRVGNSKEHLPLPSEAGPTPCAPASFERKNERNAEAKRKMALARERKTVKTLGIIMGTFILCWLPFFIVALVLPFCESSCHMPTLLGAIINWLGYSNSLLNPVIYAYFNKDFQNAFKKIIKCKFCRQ
In words: in vitro binding to 5-HT1A receptor (screening protocol). The following applies: read-out: Ki ± SD 5-HT1A. Here is the method: as §1

Where a name gives a salt, the structure may show the parent alone.

Sequence of 5-HT2A receptor (P28223 whole entry): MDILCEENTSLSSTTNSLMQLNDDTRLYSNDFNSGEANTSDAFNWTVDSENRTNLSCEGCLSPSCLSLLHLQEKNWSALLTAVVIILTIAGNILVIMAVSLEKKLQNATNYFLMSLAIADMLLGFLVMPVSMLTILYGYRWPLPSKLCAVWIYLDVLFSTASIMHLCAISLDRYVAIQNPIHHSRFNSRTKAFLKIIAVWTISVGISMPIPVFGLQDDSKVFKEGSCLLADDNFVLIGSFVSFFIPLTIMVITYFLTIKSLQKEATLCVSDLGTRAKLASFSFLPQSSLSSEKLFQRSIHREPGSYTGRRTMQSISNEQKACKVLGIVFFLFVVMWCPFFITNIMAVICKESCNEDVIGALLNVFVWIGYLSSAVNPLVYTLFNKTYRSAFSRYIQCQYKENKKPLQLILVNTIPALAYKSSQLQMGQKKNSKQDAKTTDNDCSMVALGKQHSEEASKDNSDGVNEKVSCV
Sequence of 5-HT7 receptor (P34969 whole entry): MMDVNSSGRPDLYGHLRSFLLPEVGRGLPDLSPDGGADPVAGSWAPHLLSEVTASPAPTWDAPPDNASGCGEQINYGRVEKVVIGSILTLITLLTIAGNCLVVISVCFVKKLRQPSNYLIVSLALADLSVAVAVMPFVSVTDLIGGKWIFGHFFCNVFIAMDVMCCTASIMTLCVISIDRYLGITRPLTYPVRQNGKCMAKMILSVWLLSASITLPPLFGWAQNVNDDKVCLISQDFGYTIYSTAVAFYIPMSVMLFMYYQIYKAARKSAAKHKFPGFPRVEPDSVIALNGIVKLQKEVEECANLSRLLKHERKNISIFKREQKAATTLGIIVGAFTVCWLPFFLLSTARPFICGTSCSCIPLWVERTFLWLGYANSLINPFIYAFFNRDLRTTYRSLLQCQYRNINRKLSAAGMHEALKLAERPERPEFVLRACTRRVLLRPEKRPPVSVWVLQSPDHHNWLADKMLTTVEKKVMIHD
Sequence of D2 receptor (P14416 whole entry): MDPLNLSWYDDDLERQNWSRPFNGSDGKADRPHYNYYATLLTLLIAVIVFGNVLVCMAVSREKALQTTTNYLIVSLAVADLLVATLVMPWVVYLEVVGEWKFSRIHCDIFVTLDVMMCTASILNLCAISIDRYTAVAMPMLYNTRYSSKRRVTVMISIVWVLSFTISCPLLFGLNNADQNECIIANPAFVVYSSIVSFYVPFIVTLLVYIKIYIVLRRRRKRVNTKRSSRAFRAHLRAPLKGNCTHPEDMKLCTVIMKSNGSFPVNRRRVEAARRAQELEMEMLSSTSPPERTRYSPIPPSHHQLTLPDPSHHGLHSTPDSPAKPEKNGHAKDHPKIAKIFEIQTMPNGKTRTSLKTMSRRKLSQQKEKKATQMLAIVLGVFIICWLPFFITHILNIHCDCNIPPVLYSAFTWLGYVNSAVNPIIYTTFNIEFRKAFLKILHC
Sequence of 5-HT6 receptor (P50406 whole entry): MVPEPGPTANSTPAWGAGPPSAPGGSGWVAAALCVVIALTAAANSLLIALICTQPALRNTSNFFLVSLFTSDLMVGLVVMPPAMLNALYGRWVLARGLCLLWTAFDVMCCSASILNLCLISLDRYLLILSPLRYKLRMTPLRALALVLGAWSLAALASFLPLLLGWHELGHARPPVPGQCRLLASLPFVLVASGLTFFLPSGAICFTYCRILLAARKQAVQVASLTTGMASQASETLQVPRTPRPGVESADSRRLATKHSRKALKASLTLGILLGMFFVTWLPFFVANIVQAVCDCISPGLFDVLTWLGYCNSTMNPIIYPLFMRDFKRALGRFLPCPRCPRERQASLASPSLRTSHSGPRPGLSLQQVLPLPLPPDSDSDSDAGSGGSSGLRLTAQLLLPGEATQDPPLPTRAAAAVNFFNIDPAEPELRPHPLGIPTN

One may read the Ki as the equilibrium dissociation constant of an inhibitor or competing ligand from its target. As to `O=c1n(CCCN2CCN(c3cccc(Cl)c3Cl)CC2)nc2ccccn12` [10a, 2-[3-[4-(2,3-dichlorophenyl)piperazin-1-yl]propyl]-[1,2,4]triazolo[4,3-a]pyridin-3-one hydrochloride], the Ki at 5-HT2A receptor turned out to be 181 ± 22 nM; at D2 receptor, 116 ± 19 nM; on 5-HT6 receptor, 1.43 ± 0.294 µM; at 5-HT7 receptor it was 157 ± 13 nM.
Consider `O=c1n(CCCN2CCN(c3ccccc3F)CC2)nc2ccccn12` [10b, 2-[3-[4-(2-fluorophenyl)piperazin-1-yl]propyl]-[1,2,4]triazolo[4,3-a]pyridin-3-one hydrochloride], for which the Ki on 5-HT1A receptor came out at 1550 ± 314 nM; on 5-HT2A receptor, 969 ± 114 nM; at D2 receptor, 1650 ± 203 nM; on 5-HT6 receptor it was 36.4 µM; at 5-HT7 receptor it was 7420 ± 625 nM.
As for `O=c1n(CCCN2CCN(c3ncccn3)CC2)nc2ccccn12` [10c, 2-[3-(4-pyrimidin-2-ylpiperazin-1-yl)propyl]-[1,2,4]triazolo[4,3-a]pyridin-3-one hydrochloride], the Ki on 5-HT1A receptor came to 459 ± 36 nM; at 5-HT2A receptor, 178 ± 25 nM; at D2 receptor it was 122 ± 8 nM; at 5-HT6 receptor, 3.25 ± 0.401 µM; at 5-HT7 receptor, 174 ± 34 nM.
`CCOc1ccccc1N1CCN(CCCn2nc3ccccn3c2=O)CC1` [10d, 2-[3-[4-(2-ethoxyphenyl)piperazin-1-yl]propyl]-[1,2,4]triazolo[4,3-a]pyridin-3-one hydrochloride]: the Ki on 5-HT1A receptor turned out to be 593 ± 81 nM; at 5-HT2A receptor it was 6710 ± 952 nM; on D2 receptor, 152 ± 17 nM; at 5-HT6 receptor it was 9.46 ± 1.14 µM; at 5-HT7 receptor, 539 ± 68 nM.
With `O=c1n(CCCCCCN2CCN(c3cccc(Cl)c3)CC2)nc2ccccn12` [10e, 2-[6-[4-(3-chlorophenyl)piperazin-1-yl]hexyl]-[1,2,4]triazolo[4,3-a]pyridin-3-one hydrochloride], the Ki on 5-HT1A receptor was determined as 16 ± 2 nM; on 5-HT2A receptor, 342 ± 48 nM; at D2 receptor it was 137 ± 11 nM; on 5-HT6 receptor, 1.94 ± 0.281 µM; at 5-HT7 receptor, 278 ± 19 nM.
On to `O=c1n(CCCCCCN2CCN(c3ccccc3Cl)CC2)nc2ccccn12` [10f, 2-[6-[4-(2-chlorophenyl)piperazin-1-yl]hexyl]-[1,2,4]triazolo[4,3-a]pyridin-3-one hydrochloride], for which the Ki at 5-HT1A receptor stood at 49 ± 4 nM; on 5-HT2A receptor, 2600 ± 318 nM; on D2 receptor, 522 ± 71 nM; on 5-HT6 receptor, 3.57 ± 0.563 µM; at 5-HT7 receptor, 2600 ± 359 nM.
With `O=c1n(CCCCCCN2CCN(c3ccc(Cl)cc3)CC2)nc2ccccn12` [10g, 2-[6-[4-(4-chlorophenyl)piperazin-1-yl]hexyl]-[1,2,4]triazolo[4,3-a]pyridin-3-one hydrochloride], the Ki came out at 27 ± 3 nM on 5-HT1A receptor; 234 ± 46 nM on 5-HT2A receptor; 362 ± 17 nM at D2 receptor; 2.06 ± 0.173 µM at 5-HT6 receptor; 435 ± 61 nM at 5-HT7 receptor.
On the same counts, the results for `O=c1n(CCCCCCN2CCN(c3ccc(Cl)c(Cl)c3)CC2)nc2ccccn12` [10h, 2-[6-[4-(3,4-dichlorophenyl)piperazin-1-yl]hexyl]-[1,2,4]triazolo[4,3-a]pyridin-3-one hydrochloride] are 19 ± 3 nM, 77 ± 14 nM, 310 ± 42 nM, 0.576 ± 0.082 µM and 196 ± 29 nM.
On to `O=c1n(CCCCCCN2CCN(c3ccccc3F)CC2)nc2ccccn12` [10i, 2-[6-[4-(2-fluorophenyl)piperazin-1-yl]hexyl]-[1,2,4]triazolo[4,3-a]pyridin-3-one hydrochloride], for which the Ki came out at 7 ± 2 nM at 5-HT1A receptor; 417 ± 52 nM at 5-HT2A receptor; 195 ± 11 nM at D2 receptor; 4.74 ± 0.687 µM at 5-HT6 receptor; 993 ± 214 nM on 5-HT7 receptor.
`COc1ccccc1N1CCN(CCCCCCn2nc3ccccn3c2=O)CC1` [10j, 2-[6-[4-(2-methoxyphenyl)piperazin-1-yl]hexyl]-[1,2,4]triazolo[4,3-a]pyridin-3-one hydrochloride]: the Ki at 5-HT1A receptor was 4 ± 1 nM; at 5-HT2A receptor it was 841 ± 105 nM; on D2 receptor, 57 ± 6 nM; on 5-HT6 receptor, 11.5 µM; at 5-HT7 receptor it was 219 ± 36 nM.
For the compound `COc1cccc(N2CCN(CCCCCCn3nc4ccccn4c3=O)CC2)c1` [10k, 2-[6-[4-(3-methoxyphenyl)piperazin-1-yl]hexyl]-[1,2,4]triazolo[4,3-a]pyridin-3-one hydrochloride], the Ki was 9 ± 2 nM on 5-HT1A receptor; 343 ± 21 nM on 5-HT2A receptor; 21 ± 3 nM on D2 receptor; 3.5 ± 0.537 µM at 5-HT6 receptor; 1020 ± 184 nM on 5-HT7 receptor.
As to `COc1ccc(N2CCN(CCCCCCn3nc4ccccn4c3=O)CC2)cc1` [10l, 2-[6-[4-(4-methoxyphenyl)piperazin-1-yl]hexyl]-[1,2,4]triazolo[4,3-a]pyridin-3-one hydrochloride], the Ki on 5-HT1A receptor was 826 ± 91 nM; at 5-HT2A receptor, 3900 ± 432 nM; on D2 receptor it was 350 ± 54 nM; on 5-HT6 receptor, 5.62 ± 0.743 µM; at 5-HT7 receptor it was 8300 ± 1350 nM.
On the same counts, the results for `CCOc1ccccc1N1CCN(CCCCCCn2nc3ccccn3c2=O)CC1` [10m, 2-[6-[4-(2-ethoxyphenyl)piperazin-1-yl]hexyl]-[1,2,4]triazolo[4,3-a]pyridin-3-one hydrochloride] are 9 ± 2 nM, 1540 ± 225 nM, 1640 ± 219 nM, 4.82 ± 0.581 µM and 251 ± 52 nM.
Consider `O=c1n(CCCCCCN2CCN(c3ccccn3)CC2)nc2ccccn12` [10n, 2-[6-[4-(2-pyridyl)piperazin-1-yl]hexyl]-[1,2,4]triazolo[4,3-a]pyridin-3-one hydrochloride], for which the inhibitory constant (Ki) on 5-HT1A receptor turned out to be 18 ± 3 nM; on 5-HT2A receptor, 1720 ± 193 nM; at D2 receptor it was 10 ± 2 nM; on 5-HT6 receptor, 4.64 ± 0.341 µM; at 5-HT7 receptor, 1050 ± 91 nM.
Take `O=c1n(CCCCCCN2CCN(c3ncccn3)CC2)nc2ccccn12` [10o, 2-[6-(4-pyrimidin-2-ylpiperazin-1-yl)hexyl]-[1,2,4]triazolo[4,3-a]pyridin-3-one hydrochloride]: the Ki is 104 ± 12 nM at 5-HT1A receptor; 10600 nM at 5-HT2A receptor; 202 ± 31 nM at D2 receptor; 7.22 ± 0.827 µM on 5-HT6 receptor; 5570 ± 438 nM on 5-HT7 receptor.
On to `O=c1n(CCCCCCN2CCN(c3ccccc3)CC2)nc2ccccn12` [10p, 2-[6-(4-phenylpiperazin-1-yl)hexyl]-[1,2,4]triazolo[4,3-a]pyridin-3-one hydrochloride], for which the Ki at 5-HT1A receptor was 28 ± 4 nM; at 5-HT2A receptor, 391 ± 27 nM; at D2 receptor, 1530 ± 116 nM; on 5-HT6 receptor, 3.33 ± 0.197 µM; on 5-HT7 receptor, 404 ± 67 nM.
Consider `O=c1n(CCCCCCN2CCN(c3ccccc3-c3ccccc3)CC2)nc2ccccn12` [10r, 2-[6-[4-(2-phenylphenyl)piperazin-1-yl]hexyl]-[1,2,4]triazolo[4,3-a]pyridin-3-one hydrochloride], for which the Ki on 5-HT1A receptor amounted to 20 ± 3 nM; at 5-HT2A receptor, 328 ± 49 nM; on D2 receptor it was 191 ± 14 nM; at 5-HT6 receptor, 1.19 ± 0.165 µM; on 5-HT7 receptor, 19 ± 3 nM.
